The text below walks through data of patent US11306081B2, “Phenylacetamides as inhibitors of rock” (BRISTOL-MYERS SQUIBB COMPANY, priority 2017, dated 2022).

In general, IC50 refers to the midpoint of a concentration-inhibition curve. Lower therefore signals inhibition by little substance.

Like-named read-outs stand apart in the source and are kept apart here.

Assay [1] has as its system porcine model of IL-1 beta-induced coronary stenosis. The following applies: long term treatment; cited from earlier work.
The subject of the next assay is rat stroke model. To be noted: in vivo; cited from earlier work.
Assay [2] relates to spontaneously hypertensive rat, renal hypertensive rat and deoxycortisone acetate salt hypertensive rat models. The following applies: cited from earlier work.
The subject of assay [3] is neointimal formation in rats. The following applies: cited from earlier work.
The next assay relates to Dahl salt-sensitive rats. The following applies: rat, in vivo; cited from earlier work.
Another assay addresses ROCK2 (Homo sapiens (Human), UniProt O75116). Description: ROCK assay (LABCHIP 3000 peptide phosphorylation assay). In kind it is biochemical. To be noted: 5 μM ATP, 1.5 μM peptide substrate, dose-response. Summed up:
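Rho kinase variants in 20 mM HEPES pH 7.5, 20 mM MgCl2, 0.015% Brij-35, 4 mM DTT, 5 μM ATP, 1.5 μM FITC-AHA-AKRRRLSSLRA-OH peptide; DMSO <2%. EDTA-stopped; phosphorylated/non-phosphorylated peptide separated by microfluidic LabChip readout. Dose-response inhibition curve-fitted to give IC50.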

ROCK2, sequence (O75116 whole entry, species assumed): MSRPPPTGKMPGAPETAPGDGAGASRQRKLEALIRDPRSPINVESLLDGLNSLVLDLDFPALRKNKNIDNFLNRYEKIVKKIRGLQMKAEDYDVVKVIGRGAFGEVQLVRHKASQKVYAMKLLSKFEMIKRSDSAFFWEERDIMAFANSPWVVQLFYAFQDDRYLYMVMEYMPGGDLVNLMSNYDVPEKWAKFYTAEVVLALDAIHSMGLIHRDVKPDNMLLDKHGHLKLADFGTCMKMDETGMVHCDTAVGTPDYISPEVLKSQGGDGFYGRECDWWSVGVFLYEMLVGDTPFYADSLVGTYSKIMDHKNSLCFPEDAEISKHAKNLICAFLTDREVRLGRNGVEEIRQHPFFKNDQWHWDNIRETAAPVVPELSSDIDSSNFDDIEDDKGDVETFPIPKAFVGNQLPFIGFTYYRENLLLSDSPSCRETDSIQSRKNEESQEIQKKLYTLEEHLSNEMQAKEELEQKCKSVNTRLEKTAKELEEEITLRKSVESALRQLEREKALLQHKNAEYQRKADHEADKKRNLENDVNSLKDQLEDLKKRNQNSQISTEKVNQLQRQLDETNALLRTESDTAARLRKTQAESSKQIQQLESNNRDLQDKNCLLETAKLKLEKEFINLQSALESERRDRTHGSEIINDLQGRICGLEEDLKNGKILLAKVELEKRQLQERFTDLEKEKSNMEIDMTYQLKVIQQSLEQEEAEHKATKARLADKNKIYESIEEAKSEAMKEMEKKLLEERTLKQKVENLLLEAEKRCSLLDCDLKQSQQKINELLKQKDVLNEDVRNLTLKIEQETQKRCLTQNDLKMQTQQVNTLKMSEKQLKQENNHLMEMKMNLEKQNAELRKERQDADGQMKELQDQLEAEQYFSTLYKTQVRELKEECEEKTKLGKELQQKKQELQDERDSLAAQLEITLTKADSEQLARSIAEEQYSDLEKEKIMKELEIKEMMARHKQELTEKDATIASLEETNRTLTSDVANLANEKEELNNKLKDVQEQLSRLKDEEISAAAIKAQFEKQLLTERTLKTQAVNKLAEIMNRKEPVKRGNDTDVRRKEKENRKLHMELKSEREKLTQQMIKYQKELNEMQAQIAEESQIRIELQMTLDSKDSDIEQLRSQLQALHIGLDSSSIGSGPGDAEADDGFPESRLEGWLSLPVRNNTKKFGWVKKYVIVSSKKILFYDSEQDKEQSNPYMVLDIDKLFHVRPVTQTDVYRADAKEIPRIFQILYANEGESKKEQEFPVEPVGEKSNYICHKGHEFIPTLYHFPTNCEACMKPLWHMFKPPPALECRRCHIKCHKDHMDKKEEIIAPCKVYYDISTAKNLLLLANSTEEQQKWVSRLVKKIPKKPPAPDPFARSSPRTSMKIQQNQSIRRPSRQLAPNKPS

Regarding `O=S(=O)(c1cccc2cnccc12)N1CCCNCC1` [fasudil], in assay [1], the coronary constrictive remodeling entry is recorded as “promote a regression of coronary constrictive remodeling” and the coronary stenosis result is given as “progressively reduce coronary stenosis”. Moreover, the “infarct size and neurologic deficit” value in the assay with rat stroke model is “reduce both the infarct size and neurologic deficit”. In the case of `C[C@@H](N)[C@H]1CC[C@H](C(=O)Nc2ccncc2)CC1` [Example Y-27632, Y-27632], the blood pressure result in assay [2] (control rats) is recorded as “only a minor effect on blood pressure”; in assay [2] (three rat models of hypertension) it was “significantly decrease blood pressure”. In assay [3], the neointimal formation entry is listed as “inhibited neointimal formation”. Further, in the assay with Dahl salt-sensitive rats, the “ventricular hypertrophy, fibrosis and function” value is “improve ventricular hypertrophy, fibrosis and function”. The molecule `Cc1sc(NC(=O)Cc2ccc(Oc3ncccc3C(N)=O)c(F)c2)nc1-c1ccnn1C` [Example 086, 2-(2-fluoro-4-(2-((5-methyl-4-(1-methyl-1H-pyrazol-5-yl)thiazol-2-yl)amino)-2-oxoethyl)phenoxy) nicotinamide] had a half-inhibitory concentration (IC50) against ROCK2 of 137 nM.

The molecule `COc1ccn2nc(NC(=O)Cc3ccc(Oc4ncccc4C(N)=O)cc3)nc2c1` [Example 124, 2-(4-(2-((7-methoxy-[1,2,4]-triazolo[1,5-a]-pyridin-2-yl)-amino)-2-oxo-ethyl)phenoxy)-nicotinamide] displayed an IC50 against ROCK2 of 68.5 nM. Against the preceding molecule, the IC50 is about 2-fold lower.

In turn, `NC(=O)c1cccnc1Oc1ccc(CC(=O)Nc2ccn(CC(F)(F)F)n2)cc1F` [Example 099, 2-(2-fluoro-4-(2-oxo-2-((1-(2,2,2-trifluoroethyl)-1H-pyrazol-3-yl)amino)ethyl)phe-noxy)nicotinamide] yielded a concentration for half-maximal inhibition (IC50) against ROCK2 of 583 nM.

Molecule `COc1ccn2nc(NC(=O)Cc3ccc(Oc4ncccc4C(N)=O)c(Cl)c3)nc2c1` [Example 125, 2-(2-chloro-4-(2-((7-methoxy-[1,2,4]triazolo-[1,5-a]pyridin-2-yl)amino)-2-oxoethyl)phenoxy)-nicotinamide] registered an IC50 against ROCK2 of 12 nM. The same measure, in the same setting: under `NC(=O)c1cccnc1Oc1ccc(CC(=O)Nc2nnc(C(F)(F)F)s2)cc1F` [Example 091, 2-(2-fluoro-4-(2-oxo-2-((5-(trifluoromethyl)-1,3,4-thiadiazol-2-yl)amino)ethyl)phe-noxy)nicotinamide] stands 874 nM. Same read-out and setting: as for `NC(=O)c1cccnc1Oc1ccc(CC(=O)Nc2nc3ccc(C(F)(F)F)cc3n2CC2CC2)cc1Cl` [Example 176, 2-(2-chloro-4-(2-((1-(cyclo-propylmethyl)-6-(trifluoro-methyl)-1H-benzo[d]-imidazol-2-yl)-amino)-2-oxo-ethyl)phenoxy)-nicotinamide], the figure is 16 nM; as for `NC(=O)c1cccnc1Oc1ccc(CC(=O)Nc2nnc(-c3ccncc3)s2)cc1F` [Example 097, 2-(2-fluoro-4-(2-oxo-2-((5-(pyridin-4-yl)-1,3,4-thiadiazol-2-yl)amino)ethyl)phe-noxy)nicotinamide], 336 nM; as for `NC(=O)c1cccnc1Oc1ccc(CC(=O)Nc2nc3ccccc3s2)cc1` [Example 049, 2-(4-(2-(benzo[d]thiazol-2-ylamino)-2-oxoethyl)phenoxy) nicotinamide], 194 nM.
